{"source": "patent US12275731B2", "about": "“Azaindole inhibitors of wild-type and mutant forms of LRRK2” (DANA-FARBER CANCER INSTITUTE, INC., priority 2018, dated 2025)", "assay_in_all_cases": "KinomeScan profiling", "type_in_all_cases": "binding", "key": {"[1]": {"molecular_target": "ERK1 (Homo sapiens, UniProt P27361)", "sequence (P27361 whole entry)": "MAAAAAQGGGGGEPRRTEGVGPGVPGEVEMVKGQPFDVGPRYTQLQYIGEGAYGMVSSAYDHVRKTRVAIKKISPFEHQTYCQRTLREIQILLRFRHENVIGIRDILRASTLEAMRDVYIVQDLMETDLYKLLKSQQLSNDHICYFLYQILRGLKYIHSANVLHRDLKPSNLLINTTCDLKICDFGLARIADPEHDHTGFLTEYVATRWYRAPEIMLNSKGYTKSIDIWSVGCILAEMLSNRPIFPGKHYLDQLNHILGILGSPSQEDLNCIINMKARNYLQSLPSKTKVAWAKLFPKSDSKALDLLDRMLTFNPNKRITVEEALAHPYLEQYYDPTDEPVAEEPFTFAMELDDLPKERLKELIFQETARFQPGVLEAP", "settings": "ERK1, 1 μM; read-out: % control", "procedure,_shortened": "(§1)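 The panel spans 468 kinases, and each inventive compound was applied at 1 μM from DMSO. Lower % control means stronger binding; the activity cut-off is set at less than 35%.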"}, "[2]": {"molecular_target": "FGFR4 (Homo sapiens, UniProt P22455)", "sequence (P22455 22-802)": "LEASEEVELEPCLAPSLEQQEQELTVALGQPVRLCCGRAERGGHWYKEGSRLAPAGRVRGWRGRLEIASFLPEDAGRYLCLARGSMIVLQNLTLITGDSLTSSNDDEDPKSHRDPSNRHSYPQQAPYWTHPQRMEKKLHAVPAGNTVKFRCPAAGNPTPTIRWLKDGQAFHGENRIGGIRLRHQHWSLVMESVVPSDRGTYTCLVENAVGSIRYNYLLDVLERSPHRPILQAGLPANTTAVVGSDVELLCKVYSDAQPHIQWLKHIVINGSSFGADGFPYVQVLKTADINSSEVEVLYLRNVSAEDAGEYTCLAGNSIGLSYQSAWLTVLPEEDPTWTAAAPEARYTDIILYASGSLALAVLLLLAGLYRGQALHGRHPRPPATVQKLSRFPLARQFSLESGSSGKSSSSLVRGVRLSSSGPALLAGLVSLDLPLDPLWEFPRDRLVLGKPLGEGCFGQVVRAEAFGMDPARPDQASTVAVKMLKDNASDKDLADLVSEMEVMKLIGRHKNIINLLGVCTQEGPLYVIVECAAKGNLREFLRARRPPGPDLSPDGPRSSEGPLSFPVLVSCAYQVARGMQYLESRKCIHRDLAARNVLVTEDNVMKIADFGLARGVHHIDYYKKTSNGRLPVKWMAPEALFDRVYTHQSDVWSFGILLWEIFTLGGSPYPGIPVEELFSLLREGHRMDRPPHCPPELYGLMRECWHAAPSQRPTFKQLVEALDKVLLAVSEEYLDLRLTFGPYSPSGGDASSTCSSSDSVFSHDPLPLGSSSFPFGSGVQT", "settings": "FGFR4, 1 μM; read-out: % control", "procedure,_shortened": "as §1"}, "[3]": {"molecular_target": "FLT4 (Homo sapiens, UniProt P35916)", "settings": "FLT4, 1 μM; read-out: % control", "procedure,_shortened": "as §1"}, "[4]": {"molecular_target": "T1, IKK-beta (Homo sapiens, UniProt O14920)", "T1 construct": "purchased KinomeScan®", "T1 sequence (O14920 1-756)": "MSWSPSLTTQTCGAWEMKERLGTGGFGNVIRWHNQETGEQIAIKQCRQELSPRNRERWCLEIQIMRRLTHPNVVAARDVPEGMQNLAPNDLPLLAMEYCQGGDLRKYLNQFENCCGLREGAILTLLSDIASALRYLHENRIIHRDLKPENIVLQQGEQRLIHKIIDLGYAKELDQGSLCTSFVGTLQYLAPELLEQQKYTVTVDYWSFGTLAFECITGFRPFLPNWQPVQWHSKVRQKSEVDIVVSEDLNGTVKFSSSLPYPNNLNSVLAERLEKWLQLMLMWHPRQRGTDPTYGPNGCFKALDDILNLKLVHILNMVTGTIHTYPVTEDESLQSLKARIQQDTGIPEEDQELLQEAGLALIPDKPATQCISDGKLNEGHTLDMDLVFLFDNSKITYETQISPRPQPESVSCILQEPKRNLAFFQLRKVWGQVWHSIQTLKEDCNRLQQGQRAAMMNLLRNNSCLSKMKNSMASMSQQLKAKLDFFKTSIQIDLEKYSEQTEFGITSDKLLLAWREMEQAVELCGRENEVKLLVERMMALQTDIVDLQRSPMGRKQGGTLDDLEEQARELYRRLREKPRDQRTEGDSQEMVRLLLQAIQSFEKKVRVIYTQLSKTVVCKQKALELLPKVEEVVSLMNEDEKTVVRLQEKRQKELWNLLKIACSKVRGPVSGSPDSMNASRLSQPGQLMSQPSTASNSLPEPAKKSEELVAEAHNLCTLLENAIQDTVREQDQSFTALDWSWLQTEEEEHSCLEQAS", "settings": "read-out: % control", "procedure,_shortened": "as §1"}, "[5]": {"molecular_target": "T2, MEK6 (Homo sapiens, UniProt P52564)", "T2 sequence (P52564 1-334)": "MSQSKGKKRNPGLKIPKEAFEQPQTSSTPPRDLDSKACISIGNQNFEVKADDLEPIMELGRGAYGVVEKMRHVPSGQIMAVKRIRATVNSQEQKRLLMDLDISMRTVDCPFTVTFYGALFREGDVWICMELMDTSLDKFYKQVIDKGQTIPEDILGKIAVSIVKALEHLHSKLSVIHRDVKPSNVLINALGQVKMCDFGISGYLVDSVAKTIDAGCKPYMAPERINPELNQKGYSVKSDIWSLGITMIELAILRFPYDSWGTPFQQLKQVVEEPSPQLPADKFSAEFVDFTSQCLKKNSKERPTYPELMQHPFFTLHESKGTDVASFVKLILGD", "settings": "MEK6, 1 μM; read-out: % control", "procedure,_shortened": "as §1"}, "[6]": {"molecular_target": "T3, RIPK5 (Homo sapiens, UniProt Q6XUX3)", "T3 sequence (Q6XUX3 1-929)": "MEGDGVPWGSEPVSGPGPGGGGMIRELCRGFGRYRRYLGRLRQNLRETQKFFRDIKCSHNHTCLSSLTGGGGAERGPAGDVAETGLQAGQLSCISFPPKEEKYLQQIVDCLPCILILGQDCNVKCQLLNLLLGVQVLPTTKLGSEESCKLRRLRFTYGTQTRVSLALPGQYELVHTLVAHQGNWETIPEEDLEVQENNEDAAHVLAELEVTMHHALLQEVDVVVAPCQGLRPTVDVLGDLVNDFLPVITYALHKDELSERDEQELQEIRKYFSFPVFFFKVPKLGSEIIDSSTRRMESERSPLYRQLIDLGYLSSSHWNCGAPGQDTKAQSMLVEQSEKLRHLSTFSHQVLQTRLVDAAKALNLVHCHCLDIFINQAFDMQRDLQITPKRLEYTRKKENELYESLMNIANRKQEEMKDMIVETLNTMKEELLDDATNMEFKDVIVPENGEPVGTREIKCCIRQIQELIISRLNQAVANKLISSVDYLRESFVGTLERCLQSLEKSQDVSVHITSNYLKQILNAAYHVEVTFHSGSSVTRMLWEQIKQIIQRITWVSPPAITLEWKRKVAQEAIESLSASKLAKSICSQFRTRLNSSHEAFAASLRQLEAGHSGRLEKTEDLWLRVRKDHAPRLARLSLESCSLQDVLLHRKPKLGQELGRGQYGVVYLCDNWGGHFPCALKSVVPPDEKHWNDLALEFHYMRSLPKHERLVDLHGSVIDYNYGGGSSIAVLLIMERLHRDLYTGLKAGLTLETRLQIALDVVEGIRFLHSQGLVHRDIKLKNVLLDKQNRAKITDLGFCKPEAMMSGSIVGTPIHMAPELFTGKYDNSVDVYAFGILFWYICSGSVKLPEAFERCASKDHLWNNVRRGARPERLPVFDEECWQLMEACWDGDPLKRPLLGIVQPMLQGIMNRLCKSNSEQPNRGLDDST", "settings": "RIPK5, 1 μM; read-out: % control", "procedure,_shortened": "as §1"}, "[7]": {"molecular_target": "ROS1 (Homo sapiens, UniProt P08922)", "sequence (P08922 28-2347)": "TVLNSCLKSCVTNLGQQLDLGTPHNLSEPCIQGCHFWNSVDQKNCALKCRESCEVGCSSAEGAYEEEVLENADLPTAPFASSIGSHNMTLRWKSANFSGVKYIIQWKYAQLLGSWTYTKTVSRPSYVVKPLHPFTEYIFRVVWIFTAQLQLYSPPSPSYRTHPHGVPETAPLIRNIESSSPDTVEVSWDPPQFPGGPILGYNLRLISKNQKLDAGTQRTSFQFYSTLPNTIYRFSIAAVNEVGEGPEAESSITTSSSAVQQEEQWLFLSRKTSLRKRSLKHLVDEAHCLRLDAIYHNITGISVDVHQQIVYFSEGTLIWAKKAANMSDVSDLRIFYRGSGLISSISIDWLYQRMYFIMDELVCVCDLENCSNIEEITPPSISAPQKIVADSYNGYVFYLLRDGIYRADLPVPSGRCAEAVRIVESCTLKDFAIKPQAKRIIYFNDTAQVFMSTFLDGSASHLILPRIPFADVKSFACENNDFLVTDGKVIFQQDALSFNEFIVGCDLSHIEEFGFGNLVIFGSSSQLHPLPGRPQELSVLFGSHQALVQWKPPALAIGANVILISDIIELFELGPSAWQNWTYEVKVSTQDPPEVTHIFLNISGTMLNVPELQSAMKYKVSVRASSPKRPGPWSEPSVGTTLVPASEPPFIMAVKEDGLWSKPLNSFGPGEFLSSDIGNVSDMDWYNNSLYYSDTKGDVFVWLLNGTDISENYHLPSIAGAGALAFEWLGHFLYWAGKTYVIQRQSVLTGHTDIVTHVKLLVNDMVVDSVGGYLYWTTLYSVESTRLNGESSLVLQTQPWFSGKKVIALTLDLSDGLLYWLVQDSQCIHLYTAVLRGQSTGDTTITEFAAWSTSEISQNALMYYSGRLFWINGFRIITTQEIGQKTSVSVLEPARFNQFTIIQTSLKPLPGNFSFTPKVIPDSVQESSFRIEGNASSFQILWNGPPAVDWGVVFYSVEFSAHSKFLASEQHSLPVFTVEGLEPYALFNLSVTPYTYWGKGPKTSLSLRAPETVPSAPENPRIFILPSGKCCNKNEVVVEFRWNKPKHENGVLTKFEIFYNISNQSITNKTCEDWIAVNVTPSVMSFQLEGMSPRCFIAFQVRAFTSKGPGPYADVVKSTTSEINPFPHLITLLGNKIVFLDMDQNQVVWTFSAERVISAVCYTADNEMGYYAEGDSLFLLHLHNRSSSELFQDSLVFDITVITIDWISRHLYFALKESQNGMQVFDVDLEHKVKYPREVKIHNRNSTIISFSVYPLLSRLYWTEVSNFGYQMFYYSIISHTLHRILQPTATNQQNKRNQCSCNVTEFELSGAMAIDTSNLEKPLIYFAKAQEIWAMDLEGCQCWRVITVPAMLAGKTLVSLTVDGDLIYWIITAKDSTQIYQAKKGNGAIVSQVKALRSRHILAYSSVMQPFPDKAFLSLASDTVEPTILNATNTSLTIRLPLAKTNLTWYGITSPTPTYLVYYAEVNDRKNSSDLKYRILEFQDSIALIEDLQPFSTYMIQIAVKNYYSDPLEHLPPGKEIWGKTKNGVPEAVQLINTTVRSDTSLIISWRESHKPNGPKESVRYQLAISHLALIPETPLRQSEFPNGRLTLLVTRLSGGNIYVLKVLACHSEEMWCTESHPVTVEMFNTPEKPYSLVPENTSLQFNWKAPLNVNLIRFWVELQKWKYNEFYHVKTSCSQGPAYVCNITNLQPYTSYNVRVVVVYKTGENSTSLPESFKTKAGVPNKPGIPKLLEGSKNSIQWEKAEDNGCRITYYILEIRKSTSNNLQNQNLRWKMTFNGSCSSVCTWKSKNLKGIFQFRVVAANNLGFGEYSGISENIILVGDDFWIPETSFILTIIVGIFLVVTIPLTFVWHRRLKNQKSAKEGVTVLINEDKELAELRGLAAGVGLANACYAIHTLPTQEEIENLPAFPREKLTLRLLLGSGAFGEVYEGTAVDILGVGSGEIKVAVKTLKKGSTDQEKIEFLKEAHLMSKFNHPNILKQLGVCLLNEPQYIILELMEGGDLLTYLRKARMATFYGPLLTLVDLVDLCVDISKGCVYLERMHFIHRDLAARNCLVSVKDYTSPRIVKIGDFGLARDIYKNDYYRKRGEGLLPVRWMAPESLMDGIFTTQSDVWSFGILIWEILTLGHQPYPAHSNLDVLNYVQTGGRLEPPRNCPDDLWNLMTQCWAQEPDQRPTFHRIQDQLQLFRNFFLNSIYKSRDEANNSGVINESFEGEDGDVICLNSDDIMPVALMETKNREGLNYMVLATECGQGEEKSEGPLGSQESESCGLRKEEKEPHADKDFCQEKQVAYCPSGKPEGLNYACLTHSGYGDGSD", "settings": "ROS1, 1 μM; read-out: % control", "procedure,_shortened": "as §1"}, "[8]": {"molecular_target": "T4, SRMS (Homo sapiens, UniProt Q9H3Y6)", "T4 construct": "purchased KinomeScan® (panel service)", "T4 sequence (Q9H3Y6 whole entry)": "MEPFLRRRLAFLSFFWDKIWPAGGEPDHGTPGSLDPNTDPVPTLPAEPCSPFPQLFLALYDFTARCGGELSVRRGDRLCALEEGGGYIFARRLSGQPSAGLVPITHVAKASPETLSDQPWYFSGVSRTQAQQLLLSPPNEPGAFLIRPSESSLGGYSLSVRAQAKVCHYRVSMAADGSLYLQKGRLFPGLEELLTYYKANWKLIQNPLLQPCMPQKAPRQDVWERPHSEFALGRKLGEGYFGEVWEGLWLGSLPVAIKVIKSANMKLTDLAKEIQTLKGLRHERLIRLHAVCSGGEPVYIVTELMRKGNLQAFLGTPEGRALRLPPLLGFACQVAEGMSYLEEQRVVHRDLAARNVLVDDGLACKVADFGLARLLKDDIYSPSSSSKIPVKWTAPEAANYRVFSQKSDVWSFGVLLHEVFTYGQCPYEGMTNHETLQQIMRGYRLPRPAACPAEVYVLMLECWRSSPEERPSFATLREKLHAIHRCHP", "settings": "read-out: % control", "procedure,_shortened": "as §1"}}}
{"smiles": "CNc1c(-c2cnn([C@H]3CCN(C(C)=O)C[C@@H]3F)c2)cnc2[nH]cc(Cl)c12", "note": "[Compound 77, 1-((3S,4S)-4-(4-(3-chloro-4-(methylamino)-1H-pyrrolo[2,3-b]pyridin-5-yl)-1H-pyrazol-1-yl)-3-fluoropiperidin-1-yl)ethan-1-one]", "values": [{"measurement": "remaining binding at 1 µM", "setting": "[1]", "result": 100, "unit": "%"}, {"measurement": "remaining binding at 1 µM", "setting": "[2]", "result": 61, "unit": "%"}, {"measurement": "remaining binding at 1 µM", "setting": "[3]", "result": 47, "unit": "%"}, {"measurement": "remaining binding at 1 µM", "setting": "[4]", "result": 28, "unit": "%"}, {"measurement": "remaining binding at 1 µM", "setting": "[5]", "result": 60, "unit": "%"}, {"measurement": "remaining binding at 1 µM", "setting": "[6]", "result": 31, "unit": "%"}, {"measurement": "remaining binding at 1 µM", "setting": "[7]", "result": 74, "unit": "%"}, {"measurement": "remaining binding at 1 µM", "setting": "[8]", "result": 90, "unit": "%"}]}
{"smiles": "CNc1c(-c2ccc(C(=O)N3CCC(N4CCOCC4)CC3)cc2)cnc2[nH]cc(Cl)c12", "note": "[Compound 96, (4-(3-chloro-4-(methylamino)-1H-pyrrolo[2,3-b]pyridin-5-yl)phenyl)(4-morpholinopiperidin-1-yl)methanone]", "values": [{"measurement": "remaining binding at 1 µM", "setting": "[1]", "result": 100, "unit": "%"}, {"measurement": "remaining binding at 1 µM", "setting": "[2]", "result": 59, "unit": "%"}, {"measurement": "remaining binding at 1 µM", "setting": "[3]", "result": 66, "unit": "%"}, {"measurement": "remaining binding at 1 µM", "setting": "[4]", "result": 32, "unit": "%"}, {"measurement": "remaining binding at 1 µM", "setting": "[5]", "result": 16, "unit": "%"}, {"measurement": "remaining binding at 1 µM", "setting": "[6]", "result": 8.6, "unit": "%"}, {"measurement": "remaining binding at 1 µM", "setting": "[7]", "result": 89, "unit": "%"}, {"measurement": "remaining binding at 1 µM", "setting": "[8]", "result": 100, "unit": "%"}]}
{"smiles": "O=C(c1ccc(-c2cnc3[nH]cc(Cl)c3c2NC2CCCC2)cc1)N1CCC(N2CCOCC2)CC1", "note": "[Compound 101, (4-(3-chloro-4-(cyclopentylamino)-1H-pyrrolo[2,3-b]pyridin-5-yl)phenyl)(4-morpholinopiperidin-1-yl)methanone]", "values": [{"measurement": "remaining binding at 1 µM", "setting": "[1]", "result": 98, "unit": "%"}, {"measurement": "remaining binding at 1 µM", "setting": "[2]", "result": 85, "unit": "%"}, {"measurement": "remaining binding at 1 µM", "setting": "[3]", "result": 100, "unit": "%"}, {"measurement": "remaining binding at 1 µM", "setting": "[4]", "result": 93, "unit": "%"}, {"measurement": "remaining binding at 1 µM", "setting": "[5]", "result": 95, "unit": "%"}, {"measurement": "remaining binding at 1 µM", "setting": "[6]", "result": 50, "unit": "%"}, {"measurement": "remaining binding at 1 µM", "setting": "[7]", "result": 73, "unit": "%"}, {"measurement": "remaining binding at 1 µM", "setting": "[8]", "result": 72, "unit": "%"}]}
